Like-named read-outs stand apart in the source and are kept apart here. One block for each compound: values may come before it.
Legend:
[1] = tested on: parent CHO cells (no transfected receptor); parameters: method as in PMID 34355529; conditions: non‐α‐mediated mechanism; cited from earlier work
human α2C‐adrenoceptor [2] = biological target: T1, human α2C‐adrenoceptor (Homo sapiens, UniProt P18825); assay: ERK1/2‐phosphorylation in CHO‐α2C cells; assay type: cell-based; parameters: expressed in transfected cells; host or cells: CHO-K1 with CRE-SPAP reporter
T1 sequence (P18825 1-462): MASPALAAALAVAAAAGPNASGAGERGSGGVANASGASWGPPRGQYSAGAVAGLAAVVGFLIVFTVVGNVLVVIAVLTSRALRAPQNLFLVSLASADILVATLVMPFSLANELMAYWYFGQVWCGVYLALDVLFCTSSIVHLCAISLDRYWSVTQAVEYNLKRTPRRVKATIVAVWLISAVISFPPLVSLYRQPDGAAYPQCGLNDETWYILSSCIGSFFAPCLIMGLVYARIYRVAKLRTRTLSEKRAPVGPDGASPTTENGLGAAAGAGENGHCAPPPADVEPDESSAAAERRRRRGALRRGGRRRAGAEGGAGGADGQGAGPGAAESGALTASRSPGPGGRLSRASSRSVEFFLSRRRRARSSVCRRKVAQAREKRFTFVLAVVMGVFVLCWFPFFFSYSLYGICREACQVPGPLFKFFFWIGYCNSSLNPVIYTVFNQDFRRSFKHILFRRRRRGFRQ

human α2A‐adrenoceptor [3] = biological target: T2, human α2A‐adrenoceptor (Homo sapiens, UniProt P08913); assay: ERK1/2‐phosphorylation in CHO‐α2A cells; assay type: cell-based; parameters: expressed in transfected cells; host or cells: CHO-K1 with CRE-SPAP reporter
T2 sequence (P08913 1-465): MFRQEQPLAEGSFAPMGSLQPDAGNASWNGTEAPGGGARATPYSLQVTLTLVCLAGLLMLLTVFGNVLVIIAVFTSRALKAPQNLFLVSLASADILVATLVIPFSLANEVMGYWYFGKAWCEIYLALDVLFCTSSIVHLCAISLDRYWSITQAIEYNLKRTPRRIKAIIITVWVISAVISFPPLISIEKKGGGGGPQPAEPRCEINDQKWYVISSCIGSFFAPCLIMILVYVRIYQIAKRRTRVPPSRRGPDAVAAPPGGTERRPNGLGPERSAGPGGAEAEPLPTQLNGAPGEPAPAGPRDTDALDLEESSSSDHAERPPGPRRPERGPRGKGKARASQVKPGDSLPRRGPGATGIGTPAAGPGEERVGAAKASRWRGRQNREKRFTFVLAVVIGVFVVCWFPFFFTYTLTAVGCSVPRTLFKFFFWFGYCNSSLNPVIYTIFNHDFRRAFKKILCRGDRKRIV

human α2C‐adrenoceptor [4] = biological target: T1, human α2C‐adrenoceptor; assay: 3H‐rauwolscine whole cell binding in CHO‐α2C cells; parameters: expressed in transfected cells; host or cells: CHO-K1 with CRE-SPAP reporter
human α2C‐adrenoceptor [5] = biological target: T1, human α2C‐adrenoceptor
human α2A‐adrenoceptor [6] = biological target: T2, human α2A‐adrenoceptor
[7] = tested on: parent CHO cells (no transfected receptor); assay: ERK1/2‐phosphorylation in parent CHO cells; assay type: cell-based, Chinese hamster; conditions: Cricetulus griseus, read-out: log EC50, ERK1/2‐phosphorylation in parent CHO cells (converted)
α1D‐adrenoceptor = biological target: T3, α1D‐adrenoceptor (Homo sapiens, UniProt P25100); conditions: CHO-α1D cells
T3 sequence (P25100 1-572): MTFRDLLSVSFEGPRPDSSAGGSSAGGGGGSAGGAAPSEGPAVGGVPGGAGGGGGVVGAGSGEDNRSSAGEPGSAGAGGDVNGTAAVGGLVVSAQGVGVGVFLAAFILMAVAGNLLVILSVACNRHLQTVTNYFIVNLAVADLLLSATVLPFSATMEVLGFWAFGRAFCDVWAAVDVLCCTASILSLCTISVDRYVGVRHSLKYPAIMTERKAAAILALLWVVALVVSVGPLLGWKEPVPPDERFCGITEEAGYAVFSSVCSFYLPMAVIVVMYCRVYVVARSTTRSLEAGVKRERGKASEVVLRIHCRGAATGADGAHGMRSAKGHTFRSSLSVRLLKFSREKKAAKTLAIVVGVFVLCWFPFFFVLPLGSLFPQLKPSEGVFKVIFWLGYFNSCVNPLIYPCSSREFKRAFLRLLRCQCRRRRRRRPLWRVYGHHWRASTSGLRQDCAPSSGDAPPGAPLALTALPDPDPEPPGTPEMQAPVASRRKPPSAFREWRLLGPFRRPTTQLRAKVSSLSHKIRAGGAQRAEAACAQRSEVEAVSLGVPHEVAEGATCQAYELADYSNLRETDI

human α2A‐adrenoceptor [8] = biological target: T2, human α2A‐adrenoceptor; remark: listed apart in the source
human α2A‐adrenoceptor [9] = biological target: T2, human α2A‐adrenoceptor; assay: 3H‐rauwolscine whole cell binding in CHO‐α2A cells; parameters: expressed in transfected cells; host or cells: CHO-K1 with CRE-SPAP reporter
α1A‐adrenoceptor = biological target: T4, α1A‐adrenoceptor (Homo sapiens, UniProt P35348)
T4 sequence (P35348 1-466): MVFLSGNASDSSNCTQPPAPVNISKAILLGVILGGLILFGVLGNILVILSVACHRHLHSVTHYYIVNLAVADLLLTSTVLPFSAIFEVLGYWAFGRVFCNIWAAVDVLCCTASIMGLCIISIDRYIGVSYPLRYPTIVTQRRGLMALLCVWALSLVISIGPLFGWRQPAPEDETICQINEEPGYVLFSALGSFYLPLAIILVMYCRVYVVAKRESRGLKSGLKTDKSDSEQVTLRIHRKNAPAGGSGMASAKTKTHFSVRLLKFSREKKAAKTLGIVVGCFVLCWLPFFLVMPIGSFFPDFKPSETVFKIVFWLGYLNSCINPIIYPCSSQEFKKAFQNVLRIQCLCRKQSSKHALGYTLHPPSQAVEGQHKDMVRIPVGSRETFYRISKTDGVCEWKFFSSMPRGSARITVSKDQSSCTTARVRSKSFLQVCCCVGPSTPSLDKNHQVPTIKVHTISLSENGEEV

[10] = CHO‐α2C cells, maximum response compared to 10 μM PDBu, mean ± SEM
[11] = CHO‐α2A, maximum response compared to 10 μM PDBu
[12] = 3H‐rauwolscine whole cell binding, living cells, negative log KD, mean ± SEM, read-out: Log KD, CHO‐α2C (converted)
[13] = CHO‐α2C cells, 3H‐rauwolscine whole cell binding, given as negative log KD, mean only (SEM in Table 4), read-out: Log KD (converted)
[14] = CHO‐α2C cells, % inhibition from the 3 μM forskolin control, mean ± SEM
[15] = CHO‐α2C cells, CRE‐SPAP production in the absence of forskolin
[16] = fold, from KD values, 1 = no selectivity

Compound: Cc1cc(C(C)(C)C)c(O)c(C)c1CC1=NCCN1 [Oxymetazoline]
ERK1/2‐phosphorylation agonist response in parent cells [1]: stimulate ERK1/2‐phosphorylation agonist responses

% 10 μM PDBu, ERK1/2‐phosphorylation (human α2C‐adrenoceptor [2]; [10]): 133.6 ± 17.9% | % 10 μM PDBu, ERK1/2‐phosphorylation (human α2A‐adrenoceptor [3]; [11]): 135.7 ± 17.3% | Kd (human α2C‐adrenoceptor [4]; [12]): 1.48 µM | Kd (human α2C‐adrenoceptor [4]; [13]): 1.48 µM | % inhibition, CRE‐SPAP (with forskolin) (human α2C‐adrenoceptor [5]; [14]): 72.1 ± 4.4% | Log EC50 (Gs), CRE‐SPAP (without forskolin) (human α2C‐adrenoceptor [5]; [15]): No response | IC50 (human α2C‐adrenoceptor [5]; Log IC50 (Gi), CRE‐SPAP (with forskolin), CHO‐α2C cells, inhibition of 3 μM forskolin‐stimulated CRE‐SPAP production, given as negative log IC50, mean ± SEM): 0.302 µM | % 3 μM forskolin, CRE‐SPAP (without forskolin) (human α2A‐adrenoceptor [6]): 15.8 ± 4.7%
Compound: Clc1ccc2nsnc2c1NC1=NCCN1 [Tizanidine]

Compound: CC(C)C[C@H]1C(=O)N2CCC[C@H]2[C@]2(O)O[C@](NC(=O)[C@@H]3C=C4c5cccc6[nH]c(Br)c(c56)C[C@H]4N(C)C3)(C(C)C)C(=O)N12 [Bromocriptine]
EC50 [7]: 0.117 µM | specific binding inhibited (early plateau) (α1D‐adrenoceptor): 71.2 ± 3.4%

% 10 μM PDBu, ERK1/2‐phosphorylation (human α2C‐adrenoceptor [2]; [10]): 158.8 ± 22.2% | EC50 (human α2C‐adrenoceptor [2]; CHO‐α2C cells, given as negative log EC50, mean ± SEM, read-out: Log EC50, ERK1/2‐phosphorylation (converted)): 0.158 µM | % 10 μM PDBu, ERK1/2‐phosphorylation (human α2A‐adrenoceptor [3]; [11]): 136.4 ± 13.9% | EC50 (human α2A‐adrenoceptor [3]; CHO‐α2A, read-out: Log EC50, ERK1/2‐phosphorylation (converted)): 0.24 µM | Kd (human α2C‐adrenoceptor [4]; [12]): 28.8 µM | Kd (human α2C‐adrenoceptor [4]; [13]): 28.8 µM | Selectivity ratio α2A vs α2C (higher affinity for α2C) (human α2C‐adrenoceptor [4]; [16]): 1.8 | Selectivity ratio α2B vs α2C (higher affinity for α2C) (human α2C‐adrenoceptor [4]; [16]): 2.7 | IC50 (human α2C‐adrenoceptor [5]): 0.794 µM | % inhibition, CRE‐SPAP (with forskolin) (human α2C‐adrenoceptor [5]; [14]): 85.5 ± 1.8% | Log EC50 (Gs), CRE‐SPAP (without forskolin) (human α2C‐adrenoceptor [5]; [15]): No response | Log efficacy ratio (KD/IC50) (human α2C‐adrenoceptor [5]; CHO‐α2C cells, log KD from 3H‐rauwolscine binding versus CRE‐SPAP log IC50): 1.56 | IC50 (human α2A‐adrenoceptor [8]): 3.16 µM | % inhibition, CRE‐SPAP (with forskolin) (human α2A‐adrenoceptor [8]; CHO‐α2A (cell line 1), % inhibition from the 3 μM forskolin control, inhibition only): 87.0 ± 1.3% | Log EC50 (Gs), CRE‐SPAP (without forskolin) (human α2A‐adrenoceptor [8]; CHO‐α2A (cell line 1), absence of forskolin): No response | Log efficacy ratio (KD/IC50) (human α2A‐adrenoceptor [8]; CHO‐α2A, binding KD / Gi IC50 of CRE‐SPAP): 1.22 | Selectivity ratio α2A vs α2B (higher affinity for α2A) (human α2A‐adrenoceptor [9]; [16]): 1.5 | Kd (human α2A‐adrenoceptor [9]; read-out: Log KD (binding) (converted)): 52.5 µM | Kd (human α2A‐adrenoceptor [9]; read-out: Log KD, CHO‐α2A (converted)): 52.5 µM
Compound: C[C@H](N)[C@H](O)c1cccc(O)c1 [Metaraminol]

Compound: CN1C[C@H](C(=O)N[C@]2(C)O[C@@]3(O)[C@@H]4CCCN4C(=O)[C@H](Cc4ccccc4)N3C2=O)C[C@@H]2c3cccc4[nH]cc(c34)C[C@H]21 [Dihydroergotamine]
ERK1/2‐phosphorylation agonist response in parent cells [1]: stimulate ERK1/2‐phosphorylation agonist responses

Compound: Cc1cc(C(C)(C)C)cc(C)c1CC1=NCCN1 [Xylometazoline]
Kd (human α2C‐adrenoceptor [4]): 0.107 µM | Selectivity ratio α2B vs α2C (higher affinity for α2C) (human α2C‐adrenoceptor [4]): 33.9 | Kd (human α2C‐adrenoceptor [4]; Log KD, CHO‐α2C): 0.107 µM | % inhibition, CRE‐SPAP (with forskolin) (human α2C‐adrenoceptor [5]): 57.2 ± 3.9% | IC50 (human α2C‐adrenoceptor [5]): 0.0631 µM | Log EC50 (Gs), CRE‐SPAP (without forskolin) (human α2C‐adrenoceptor [5]): No response | Log efficacy ratio (KD/IC50) (human α2C‐adrenoceptor [5]): 0.23 | % inhibition, CRE‐SPAP (with forskolin) (human α2A‐adrenoceptor [8]): 73.9 ± 4.6% | IC50 (human α2A‐adrenoceptor [8]): 0.00741 µM | Log EC50 (Gs), CRE‐SPAP (without forskolin) (human α2A‐adrenoceptor [8]): No response | Log efficacy ratio (KD/IC50) (human α2A‐adrenoceptor [8]): 0.51 | ERK1/2‐phosphorylation agonist response in parent cells [1]: stimulate ERK1/2‐phosphorylation agonist responses | Kd (human α2A‐adrenoceptor [9]): 0.024 µM | Selectivity ratio α2A vs α2B (higher affinity for α2A) (human α2A‐adrenoceptor [9]): 151 | Selectivity ratio α2A vs α2C (higher affinity for α2A) (human α2A‐adrenoceptor [9]): 4.5 | Kd (human α2A‐adrenoceptor [9]; Log KD, CHO‐α2A): 0.024 µM

Compound: CS(=O)(=O)Nc1c(O)ccc2c1CCCC2C1=NCCN1 (centres unmarked) [A61603]
% 10 μM PDBu, ERK1/2‐phosphorylation (human α2C‐adrenoceptor [2]; [10]): 149.2 ± 30.3% | Log EC50, ERK1/2‐phosphorylation (human α2C‐adrenoceptor [2]; CHO‐α2C cells, given as negative log EC50, mean ± SEM): −7.26 ± 0.15 | IC50 (human α2C‐adrenoceptor [4]; 3H‐rauwolscine whole cell binding, no KD obtained, read-out: IC50 in binding, CHO‐α2C): > 100 µM | IC50 (log) in binding, no KD obtained (human α2C‐adrenoceptor [4]; CHO‐α2C cells, 3H‐rauwolscine whole cell binding, printed as log value in the Log KD column): IC50 > −4 | higher α1A‐affinity than for any other α‐adrenoceptor (α1A‐adrenoceptor): 1000 fold | Log efficacy ratio (KD/IC50) (human α2C‐adrenoceptor [5]): >2.68 | % inhibition, CRE‐SPAP (with forskolin) (human α2C‐adrenoceptor [5]; [14]): 80.5 ± 3.0% | Log EC50 (Gs), CRE‐SPAP (without forskolin) (human α2C‐adrenoceptor [5]; [15]): No response | Log IC50 (Gi), CRE‐SPAP (with forskolin) (human α2C‐adrenoceptor [5]; CHO‐α2C cells, inhibition of 3 μM forskolin‐stimulated CRE‐SPAP production, given as negative log IC50, mean ± SEM): −6.68 ± 0.09

Compound: CNCC(O)c1ccc(O)cc1 (centres unmarked) [Synephrine]
% 10 μM PDBu, ERK1/2‐phosphorylation (human α2C‐adrenoceptor [2]): 112.8 ± 10.7% | EC50 (human α2C‐adrenoceptor [2]): 3.24 µM | % 10 μM PDBu, ERK1/2‐phosphorylation (human α2A‐adrenoceptor [3]): 114.5 ± 12.3% | EC50 (human α2A‐adrenoceptor [3]): 0.776 µM | Kd (human α2C‐adrenoceptor [4]): 120 µM | % inhibition, CRE‐SPAP (with forskolin) (human α2C‐adrenoceptor [5]): 88.1 ± 8.5% | IC50 (human α2C‐adrenoceptor [5]): 34.7 µM | Log EC50 (Gs), CRE‐SPAP (without forskolin) (human α2C‐adrenoceptor [5]): No response | % inhibition, CRE‐SPAP (with forskolin) (human α2A‐adrenoceptor [8]): 75.6 ± 5.6% | IC50 (human α2A‐adrenoceptor [8]): 9.55 µM | Log EC50 (Gs), CRE‐SPAP (without forskolin) (human α2A‐adrenoceptor [8]): No response | Kd (human α2A‐adrenoceptor [9]): 89.1 µM

Reference: PMC9471048, “The signaling and selectivity of α‐adrenoceptor agonists for the human α2A, α2B and α2C‐adrenoceptors and comparison with human α1 and β‐adrenoceptors” (Pharmacology Research & Perspectives, 2022)
